The test system of experiment [1] is calcium-activated chloride channels (CaCC). The experiment in a line: Whole cell patch clamp recording of CaCC-mediated Cl- currents in JME/CF15 cells. Type of experiment: cell-based. The protocol:
Effect on calcium-activated chloride channels (CaCC) was investigated in JME/CF15 cells (see Jefferson et al. “Expression of normal and cystic fibrosis phenotypes by continuous airway epithelial cell lines” Am J. Physiol. (1990) December; 259 (6 Pt 1): L496-505). […] Test compound was Compound 10 ('915/2 in FIGS. 1 and 2) and positive control for CaCC was flufenamic acid (FFA).
JME/CF15 cells were prepared for whole cell patch clamp recordings following standard protocols (as described in Fischer et al. “Basolateral Cl channels in primary airway epithelial cultures” Am J Physiol Lung Cell Mol Physiol. (2007) 292:L1432-L1443, which is incorporated herein by reference in its entirety) while incubated in a bath solution as follows (mM): 140 HCl, 158 N-methyl-D-glucamine (NMDG), 2 CaCl2, 1 MgCl2, 12.5 Hepes, 10 glucose, pH 7.4. To selectively activate calcium-activated chloride channels (CaCC), the pipette solution consisted of (in mM) HCl, 160 N-methyl-D-glucamine (NMDG), 1 MgCl2, 5 Hepes, 1 glucose, 5 MgATP, pH 7.4.
(§1) Conventional whole cell patch clamp recordings were made. Effects of compounds were tested in 2 runs at 1 and 10 μM, respectively, on CaCC. To activate CaCC mediated Cl^− conductances, the pipette solution contained 500 nM CaCl2 without EGTA (in order to allow for agonist induced regulation of CaCC) or a mixture of 1.8 mM CaCl2 and 2 mM EGTA resulting in a free concentration of calcium of 500 nM to maintain a stable intracellular calcium concentration.
(§2) CaCC-mediated Cl^− currents were measured with a pipette solution that contained ˜500 nM free Ca to activate CaCC. […] This is likely a Ca-activated K^+ conductance because i) it generates a large outward current (which rules out a Cl^− conductance), and ii) it is transient (likely because intracellular K^+ is exhausted).

Experiment [2] has as its system Ca-activated K+ conductance. The experiment in a line: Whole cell patch clamp in JME/CF15 cells: additional (K+) conductance. It is filed as cell-based. As for the experimental part:
as §1, §2
The experimental conditions were not set up to measure a K^+ conductance, i.e., there is no K^+ in the employed solutions, and the measured currents are dependent on the residual K^+ found in cells. […] In an epithelial setting, concurrent block of CaCC and a K^+ conductance may result in weaker blocker efficiency or even in stimulation of secretion.
In general terms: The patch-clamp technique gives a direct electrical read-out from membranes.

For experiment [3], the system named is intestinal loops injected with cholera toxin (CTX). More on the design: species or system mice (CD1 strain). The note with it: mouse, in vivo.

SMILES strings stand for the structures. Values joined by “and” are separate entries in the source; they are usually repeats but may differ in a detail not shown here. Identical values can stand only once. “Also recorded” adds a separate entry of the source.

`O=C(O)c1ccccc1Nc1cccc(C(F)(F)F)c1` [FFA, flufenamic acid, reference compound]: the “Block of remaining chloride current after compound 10” value in experiment [1] (intracellular calcium unbuffered, 100 μM FFA added after compound 10, FIG. 2) is listed as “blocks only slightly more”.
Consider `CN(Cc1ccc(Cl)c(Cl)c1)C(=O)c1nnc(-c2cccc(NS(=O)(=O)C(F)(F)F)c2)o1` [Compound 10, N-(3,4-dichlorobenzyl)-N-methyl-5-(3-(trifluoromethylsulfonamido)phenyl)-1,3,4-oxadiazole-2-carboxamide], for which, in experiment [1] (intracellular calcium stably buffered (with EGTA), ~500 nM free Ca, compound added to bath, runs at 1 and 10 μM, FIG. 1), the “Block of CaCC-mediated Cl- currents” value is on record as “blocking; also recorded: blocked currents”. In addition, in experiment [1] (intracellular calcium unbuffered (low EGTA), ~500 nM free Ca, 10 μM, FIG. 2), the “Block of CaCC-mediated (remaining) chloride current” value is “blocking; also recorded: eventually well blocked”. Further, the “Activation of a K+ conductance” value in experiment [2] (Ca-buffered solutions) is recorded as “not in Ca-buffered”. For the same compound, in experiment [2] (intracellular calcium unbuffered (low EGTA), 10 μM, FIG. 2), the “Activation of an additional conductance (likely Ca-activated K+ conductance)” value is “transiently activated an additional conductance; also recorded: activation of a Ca-activated K^+ conductance”. In experiment [3], the “Inhibition of CTX-induced fluid secretion (statistical significance)” value was “statistically significant inhibition”; the “Mean net fluid secretion (loop weight/loop length)” value is 0.04996 g/cm and 0.04015 g/cm and 0.07645 g/cm.
For `O=C(NCc1ccc(Oc2ccccc2)cc1)c1nc(-c2cc(Br)c(O)c(Br)c2)no1` [BF000710032, 3-(3,5-dibromo-4-hydroxyphenyl)-N-(4-phenoxybenzyl)-1,2,4-oxadiazole-5-carboxamide, reference compound], in experiment [3], the “% Inhibition” value was 62.69%^ψ and the “Inhibition of CTX-induced fluid secretion (statistical significance)” value is reported as “statistically significant inhibition”.

The record behind these values is patent US20110288103A1, “COMPOUNDS, COMPOSITIONS, AND METHODS COMPRISING 1,3,4-OXADIAZOLE DERIVATIVES” (Institute for OneWorld Health, priority 2010, published 2011).
